The term melting point denotes the temperature of the solid-liquid transition.

The compound `CC(C)CCCC(C)C1CCC2C3C=CC4=CC(O)CC(O)C4(C)C3CCC12C` (configuration not stated) returned a melting point of 120 to 121 °C.
Regarding `O=C(NN=Cc1ccc(C(F)(F)F)cc1)c1ccc(O)cc1`, the melting point worked out at 260 °C.
Next, `NCC(O)c1cc(Cl)cc(Cl)c1` (configuration not stated): 66 °C.
The compound `CC(=O)N[C@@H](CSC(C)=O)C(=O)NCCSC(=O)C(C)C` showed a melting point of 115 to 117 °C.
The figure for `CCCc1cc(C=Cc2ccc3ccccc3n2)cc(OCC(=O)O)c1` is 97 to 98 °C.
Compound `Cc1ccc(C(=O)N2CCc3cc(C(=O)NO)ccc3C2)cc1` showed a melting point of 105 to 108 °C.
In the case of `CC(C)Cc1cc(-c2cc(C=C3SC(=O)NC3=O)ccc2OC(F)(F)F)c2c(c1)C(C)(C)CO2`, the melting point lay in the range of 142 to 146 °C.
As for `CN(C)C1(c2ccccc2)CCC(=CC(=O)NCc2ccccc2)CC1` (configuration not stated), the melting point lay in the range of 145 to 148 °C.
As to `NC(=O)[C@@H]1CCCN1C(=O)/C=C/S(=O)(=O)c1ccccc1`, the melting point is 157 to 158 °C.
The figure for `O=C(O)CCc1ccc(-c2nc(=O)c3ccccc3s2)nc1` is 232 °C; for `Cn1c(=O)[nH]c(=O)n(-c2ccc(Sc3nc4ccc(Cl)cc4s3)cc2)c1=O` it is 232 to 233 °C.
Consider `Cc1c(F)c(F)c(C)c(C(=O)O)c1F`, for which the melting point is 118 to 119 °C.
Next, `CCCCc1ccc(C(=O)Cc2ccc(Br)cc2)cc1`: 129 to 131 °C; `CCCN1C(=O)c2ccccc2C1(O)c1ccc(F)cc1` (configuration not stated): 172 to 175 °C.
The compound `CCCCCC(C)C(C)c1cc(OC)c2c(c1)OC(C)(C)C1=C2CN(C(N)=NO)CC1` (configuration not stated) returned a melting point of 176 to 178 °C.
Take `Cc1ccc(S(=O)(=O)N2CCC(c3cccc4c3CCCC(C(=O)O)=C4)CC2)cc1`: the melting point was in the range of 255 to 257 °C.
As to `COc1ccc2[nH]c(C)cc2c1OCc1ccccc1`, the melting point is 74 to 75 °C.
`COC(=O)c1[nH]ccc1O` had a melting point of 100 to 102 °C.
In turn, `CC1(C)NC(=O)CSC1=NO` had a melting point of 234 to 236 °C.
`CS(=O)(=O)c1ccc(-c2cc(F)c(F)cc2-c2ccc3c(c2)OCO3)cc1` came in with a melting point of 110 to 111 °C.
The compound `COc1ccc2c(c1)c(CC(=O)OCC(=O)N(C)CCO[N+](=O)[O-])c(C)n2C(=O)c1ccc(Cl)cc1` showed a melting point of 118 to 122 °C.
In the case of `CSSc1ccc([N+](=O)[O-])cc1C(Cl)(Cl)Cl`, the melting point amounted to 76 °C.
Take `CC12CCC3C(CC=C4C=C(OCc5ccccc5)CCC43C)C1CCC2=O` (configuration not stated): the melting point fell in the range of 172 to 178 °C.
Turning to `O=C(O)c1ccc(C23CC4CC(C2)CC(c2ccc(C(=O)O)cc2)(C4)C3)cc1`, the melting point lay in the range of 304 to 306 °C.
The figure for `NC(=O)NC1CCCc2sc(Br)cc21` (configuration not stated) is 206 to 210 °C.
In turn, `COc1ccc(CN2N=C(c3ccc(OC)c(OC)c3)[C@@H]3CCCC[C@@H]3C2=O)cc1` (relative stereo) returned a melting point of 77 to 78 °C.
In turn, `COc1cccc(C2OC(=O)CC2C(=O)O)c1OC` (configuration not stated) gave a melting point of 129 to 130 °C.
In turn, `CC(=O)OCC1OC(n2cc(C)c(NO)nc2=O)CC1F` (configuration not stated) gave a melting point of 180 to 181 °C.
In turn, `Cc1ccc(CC(=O)O)s1` returned a melting point of 54 °C.
Take `O=C(OC1CCCC1=O)c1ccccc1` (configuration not stated): the melting point lay within 87 to 88 °C.
As to `CCN(CC)C(=O)NC1CC2c3cccc4[nH]c(C#Cc5cccs5)c(c34)CC2N(C)C1` (configuration not stated), the melting point was 252 to 256 °C.
Compound `CN1CCN(Cc2ccc3n2Cc2ccccc2SC3c2ccccc2)CC1` (configuration not stated) returned a melting point of 161 to 162 °C.
The figure for `O=C(O)CN1C(=O)C(=Cc2ccc(O)cc2)SC1=S` is over 300 °C.
On to `Nc1cn(C2OC(CO)C(O)C2O)nn1` (configuration not stated), for which the melting point fell in the range of 102 to 104 °C.
For `C=C(C)C(=O)OCc1ccc(C#Cc2ccc(OC(=O)C(=C)C)cc2)cc1`, the melting point turned out to be 65 °C.
The figure for `Nc1cccc(Oc2cccc3cccnc23)c1` is 98 to 100 °C; for `CC(C)(C)NC(=O)[C@@H]1C[C@H](Cl)CN1C(=O)OC(C)(C)C` it is 149 to 150 °C; for `O=c1cnc2c([nH]1)-c1ccccc1C2=NO` it is over 300 °C.
As to `CC(C)NC(=O)N1CCc2[nH]cnc2C1c1ccccn1` (configuration not stated), the melting point came to 240 °C.
Compound `CC(C)(C)Oc1ccc(C(=O)N[C@H]2CC[C@H](CCN3CCC(c4cccc5c4CCO5)CC3)CC2)cc1` registered a melting point of 216 °C.
`COC(=O)C1=CCC2C(CCC3C(C)(C)CCCC23C)C(=O)C1` (configuration not stated): the melting point fell in the range of 93 to 94 °C.
For `[N-]=[N+]=NCCc1ccc(C(=O)O)cc1`, the melting point was 130 to 131 °C.
Turning to `CCCCOc1ccc(Nc2c([N+](=O)[O-])ccc(Cl)c2C(=O)O)cc1`, the melting point is 166 to 169 °C.
Compound `C=CC(=O)NC(C)(C)C(=O)NCC(OC)OC` registered a melting point of 80 to 82 °C.
As for `Cn1nc(-c2cccc(C(F)(F)F)c2)c(O)c1C(=O)O`, the melting point lay within 192 to 194 °C.
Next, `CN(c1cccc2cc(C3=NCCS3)[nH]c12)S(=O)(=O)c1cccs1`: 192 to 193 °C; `CCCCOC(=O)C(N)c1ccc(OCC(O)CNC(C)C)nc1` (configuration not stated): 85 to 87 °C; `c1ccc(-c2nn3ccccc3c2-c2ccnnc2)cc1`: 204 to 205 °C.
On to `C[C@H]1CN(Cc2ccccc2)C[C@H]1NC(=O)OC(C)(C)C` (relative stereo), for which the melting point lay within 132 to 133 °C.
The figure for `CCOC(=O)c1cn(C2CC2)c2c(F)c(NCCCO)c(F)cc2c1=O` is 160 to 162 °C; for `Oc1ccc(C(O)CN2CCN(C(c3ccccc3)c3ccccc3)CC2)cc1` (configuration not stated) it is 154 °C.
In turn, `CC(CCCOc1ccc(C2=C(c3ccccc3)CCCc3cc(O)ccc32)cc1)S(=O)(=O)Cc1ccco1` (configuration not stated) showed a melting point of 168 °C.
For the compound `Cc1nc2c(N)nc3c(c2n1CCCCS(C)(=O)=O)CCCC3`, the melting point fell in the range of 213 to 216 °C.
Next, `COC1C=C(C)C(=O)CC(C)(C)C1OC(=O)c1ccc([N+](=O)[O-])cc1` (configuration not stated): 122 to 123 °C.
The figure for `Cc1ccnc(CSCCNc2ncc(Cc3cccnc3)c(=O)[nH]2)c1Br` is 81 to 85 °C; for `CC1(C)c2cc(I)ccc2-c2ccc(I)cc21` it is 195 °C.
As for `COc1ccc2c(c1)C(CCNC(C)=O)CC2` (configuration not stated), the melting point was 73 to 74 °C.
Compound `CC(C)C[C@@H](C(=O)OC(C)(C)C)N1C(=O)NC(C(F)(F)F)(C(F)(F)F)C1=O` returned a melting point of 105 to 106 °C.
In turn, `CC(C)c1coc(=O)n1-c1cc(F)c(C#N)cc1F` returned a melting point of 83 °C.
`O=C1CCC(N2C(=O)c3cccc(CNC(=O)c4ccc(F)c(C(F)(F)F)c4)c3C2=O)C(=O)N1` (configuration not stated): the melting point was 171 to 173 °C.
`CS(=O)(=O)N1CCC(NC(=O)Nc2ccc(OC(F)(F)F)cc2)CC1`: the melting point was in the range of 233 to 234 °C.
Consider `COC(c1ccc(NC(=O)c2c(C(F)(F)F)nn(C)c2C)cc1CC(C)C)(C(F)(F)F)C(F)(F)F`, for which the melting point lay within 138 to 139 °C.
`Cn1nc2c(N)nc3c(c2c1CC(C)(C)O)CCCC3` returned a melting point of 228 to 234 °C.
The compound `CNC(=S)Nc1cc(Cl)ccc1C` had a melting point of 139 to 140 °C.
Take `COc1ccc(NC(=O)NCC2(c3ccccc3)CCCCC2)cc1`: the melting point lay in the range of 155 to 157 °C.
The compound `CC(c1cn(C)c2ccccc12)N(O)C(N)=O` (configuration not stated) yielded a melting point of 149 to 150 °C.
Regarding `CCN(CC)c1nc(-c2ccc(OC)cc2)nc2sc(C#N)c(C)c12`, the melting point is 154 to 156 °C.
